We go through eleven compounds from ChEMBL document CHEMBL1126639, “Centrally acting serotonergic and dopaminergic agents. 2. Synthesis and structure-activity relationships of 2,3,3a,4,9,9a-hexahydro-1H-benz[f]indole derivatives” (J Med Chem, 1993).

Assay [1] concerns the target T1, D(2) dopamine receptor (Rattus norvegicus, UniProt P61169). Put plainly: Binding affinity for [3H]raclopride-labeled dopamine receptor D2 in rat striatum. It counts as tissue-based.
Assay [2] deals with T2, D(2) dopamine receptor (Homo sapiens, UniProt P14416). Briefly: Intrinsic activity from GTP shift using CHO cell membranes expressing dopamine receptor D2. It counts as functional.
T2 sequence (P14416 whole entry): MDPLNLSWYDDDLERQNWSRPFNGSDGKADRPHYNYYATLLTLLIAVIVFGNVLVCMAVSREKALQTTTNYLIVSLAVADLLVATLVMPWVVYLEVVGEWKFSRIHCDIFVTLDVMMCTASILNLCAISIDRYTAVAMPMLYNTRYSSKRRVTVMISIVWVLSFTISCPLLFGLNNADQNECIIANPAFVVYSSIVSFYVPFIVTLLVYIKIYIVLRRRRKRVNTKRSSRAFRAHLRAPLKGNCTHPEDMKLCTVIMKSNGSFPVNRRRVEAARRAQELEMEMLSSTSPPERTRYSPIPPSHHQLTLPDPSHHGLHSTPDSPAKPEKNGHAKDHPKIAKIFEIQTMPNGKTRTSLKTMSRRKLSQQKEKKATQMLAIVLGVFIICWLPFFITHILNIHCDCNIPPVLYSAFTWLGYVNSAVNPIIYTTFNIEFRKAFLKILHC
Assay [3] deals with Mus musculus. Put plainly: Antagonism of apomorphine for 0-10 minutes in reserpinized mice when a dose of 0.4 micro mol/kg is administered intraperitoneally. The format is functional.
Assay [4] deals with Mus musculus. Briefly: Antagonism of apomorphine for 0-10 minutes in reserpinized mice when a dose of 3.6 micro mol/kg is administered intraperitoneally. It counts as functional.
Assay [5] deals with Mus musculus. Briefly: Antagonism of apomorphine for 0-10 minutes in reserpinized mice when a dose of 36 micro mol/kg is administered intraperitoneally. It counts as functional.
The test system of assay [6] is Mus musculus. Put plainly: Antagonism of apomorphine for 10-20 minutes in reserpinized mice when a dose of 0.4 micro mol/kg is administered intraperitoneally. The format is functional.
For assay [7], the system named is Mus musculus. Put plainly: Antagonism of apomorphine for 10-20 minutes in reserpinized mice when a dose of 3.6 micro mol/kg is administered intraperitoneally. The format is functional.
Assay [8] relates to Mus musculus. Briefly: Ability to stimulate dopaminergic systems by effect on locomotor activity in reserpinized mice when a dose of 3.6 micro mol/kg is administered intraperitoneally. The format is functional.
Assay [9] concerns Mus musculus. Briefly: Ability to stimulate dopaminergic systems by effect on locomotor activity in reserpinized mice when a dose of 36 micro mol/kg is administered intraperitoneally. It counts as functional.
Assay [10] has as its system Mus musculus. Briefly: Ability to stimulate dopaminergic systems by effect on locomotor activity in reserpinized mice when a dose of 0.4 micro mol/kg is administered intraperitoneally. The format is functional.
For assay [11], the system named is Mus musculus. Put plainly: Antagonism of apomorphine in reserpinized mice when a dose of 36 micro mol/kg is administered intraperitoneally. It counts as functional.
For assay [12], the system named is Mus musculus. Put plainly: Antagonism of apomorphine for 10-20 minutes in reserpinized mice when a dose of 36 micro mol/kg is administered intraperitoneally. The format is functional.
The test system of assay [13] is Mus musculus. Briefly: Antagonism of apomorphine in reserpinized mice when a dose of 0.4 micro mol/kg is administered intraperitoneally. The format is functional.
The subject of assay [14] is Mus musculus. Briefly: Antagonism of apomorphine in reserpinized mice when a dose of 3.6 micro mol/kg is administered intraperitoneally. It counts as functional.
Assay [15] concerns the target T2, D(2) dopamine receptor. Put plainly: Binding affinity against [3H]U-86,170-labeled dopamine receptor D2 in cloned CHO cells. The format is cell-based.
Assay [16] deals with Mus musculus. Put plainly: Antagonism of apomorphine for 0-10 minutes in reserpinized mice when a dose of 3.7 micro mol/kg is administered intraperitoneally. The format is functional.
For assay [17], the system named is Mus musculus. Briefly: Antagonism of apomorphine for 0-10 minutes in reserpinized mice when a dose of 37 micro mol/kg is administered intraperitoneally. It counts as functional.
In assay [18] the test system is Mus musculus. Briefly: Antagonism of apomorphine for 10-20 minutes in reserpinized mice when a dose of 3.7 micro mol/kg is administered intraperitoneally. The format is functional.
In assay [19] the test system is Mus musculus. Put plainly: Ability to stimulate dopaminergic systems by effect on locomotor activity in reserpinized mice when a dose of 3.7 micro mol/kg is administered intraperitoneally. The format is functional.
The subject of assay [20] is Mus musculus. Briefly: Ability to stimulate dopaminergic systems by effect on locomotor activity in reserpinized mice when a dose of 37 micro mol/kg is administered intraperitoneally. The format is functional.
Assay [21] relates to Mus musculus. Put plainly: Antagonism of apomorphine in reserpinized mice when a dose of 37 micro mol/kg is administered intraperitoneally. It counts as functional.
Assay [22] concerns Mus musculus. Briefly: Antagonism of apomorphine for 10-20 minutes in reserpinized mice when a dose of 37 micro mol/kg is administered intraperitoneally. The format is functional.
Assay [23] has as its system Mus musculus. Briefly: Antagonism of apomorphine in reserpinized mice when a dose of 3.7 micro mol/kg is administered intraperitoneally. The format is functional.
The next assay has as its system Rattus norvegicus. Put plainly: Inhibition of firing rates of dopaminergic neurons in the substantia nigra pars compacta by intravenous injection in rats. It counts as functional.
Assay [24] deals with T1, D(2) dopamine receptor. Put plainly: Inhibitory concentration against [3H]raclopride-labeled dopamine receptor D2 in rat striatum. The format is tissue-based.
For assay [25], the target named is Sodium-dependent dopamine transporter (Rattus norvegicus) (UniProt P23977). Put plainly: Inhibition of firing rates of dopaminergic neurons in the substantia nigra pars compacta by intravenous injection in rats. The format is functional, tissue-based.
Sequence of Sodium-dependent dopamine transporter (Rattus norvegicus) (P23977 whole entry): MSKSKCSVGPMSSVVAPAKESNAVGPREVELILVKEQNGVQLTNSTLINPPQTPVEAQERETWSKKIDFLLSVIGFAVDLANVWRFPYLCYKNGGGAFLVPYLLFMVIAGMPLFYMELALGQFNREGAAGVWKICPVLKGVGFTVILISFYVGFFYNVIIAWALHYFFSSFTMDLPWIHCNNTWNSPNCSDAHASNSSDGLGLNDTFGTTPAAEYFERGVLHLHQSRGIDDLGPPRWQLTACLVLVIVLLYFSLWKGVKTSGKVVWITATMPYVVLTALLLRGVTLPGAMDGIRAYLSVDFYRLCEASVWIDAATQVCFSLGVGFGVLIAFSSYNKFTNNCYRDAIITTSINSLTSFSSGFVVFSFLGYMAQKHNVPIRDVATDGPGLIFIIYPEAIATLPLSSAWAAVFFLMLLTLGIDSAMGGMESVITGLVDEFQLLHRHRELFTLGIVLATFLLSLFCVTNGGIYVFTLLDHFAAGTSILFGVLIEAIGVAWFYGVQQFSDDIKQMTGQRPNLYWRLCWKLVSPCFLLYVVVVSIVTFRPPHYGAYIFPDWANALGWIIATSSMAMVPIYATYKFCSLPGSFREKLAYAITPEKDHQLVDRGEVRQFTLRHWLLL
For a further assay, the system named is Felis catus. Briefly: Effective dose at which the sympathetic nerve activity (SND) has been reduced to 50% of the pretreatment value in anesthetized cat; In active. The format is functional, organism-based.

Several values for one entry are separate records, joined by “and”; a condition that tells them apart may be missing. Equal entries are not always repeated. Activity calls are given as the source filed them. The rule behind the calls is not given here. A value given as a limit tells only on which side of the number the result lay.

T1 sequence (P61169 whole entry): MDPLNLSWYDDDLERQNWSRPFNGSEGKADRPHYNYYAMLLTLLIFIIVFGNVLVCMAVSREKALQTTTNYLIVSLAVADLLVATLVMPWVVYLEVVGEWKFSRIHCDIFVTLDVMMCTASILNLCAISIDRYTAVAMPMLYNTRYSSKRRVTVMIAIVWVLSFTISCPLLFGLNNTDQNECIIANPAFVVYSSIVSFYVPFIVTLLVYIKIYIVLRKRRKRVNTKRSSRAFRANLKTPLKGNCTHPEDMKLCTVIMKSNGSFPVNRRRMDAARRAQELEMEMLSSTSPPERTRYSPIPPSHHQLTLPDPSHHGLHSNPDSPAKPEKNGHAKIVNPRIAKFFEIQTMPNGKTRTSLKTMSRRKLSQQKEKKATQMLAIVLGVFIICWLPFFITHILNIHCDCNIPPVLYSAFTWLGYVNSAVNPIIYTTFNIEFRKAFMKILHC

As for `COc1cccc2c1C[C@H]1CCN(Cc3ccccc3)[C@H]1C2` (racemic), the Ki on D(2) dopamine receptor [1] was 0.465 µM. This counts as sub-micromolar.
`Oc1cccc2c1C[C@H]1CCN(CC3CC3)[C@@H]1C2` (racemic): on D(2) dopamine receptor [2], the Intrinsic activity is 73%. At D(2) dopamine receptor [1], the Ki worked out at 0.118 µM. Moreover, the Locomotor activity in the assay on Mus musculus [3] is reported as 83; in the assay on Mus musculus [4] it was 31; with Mus musculus [5], 25; in the assay on Mus musculus [6] it was 88; in the assay with Mus musculus [7], 60; in the assay with Mus musculus [8] it was 539. Besides, the Locomotor activity in the assay on Mus musculus [9] stood at 1033; with Mus musculus [10], 1; with Mus musculus [11] it was 117; with Mus musculus [12], 49; in the assay on Mus musculus [13], 129; in the assay with Mus musculus [14], 163.
In the case of `C=CCN1CC[C@H]2Cc3c(O)cccc3C[C@@H]21`, on D(2) dopamine receptor [2], the Intrinsic activity is 21%. The Ki at D(2) dopamine receptor [15] is 0.235 µM; on D(2) dopamine receptor [1] it was 0.047 µM. Moreover, the Locomotor activity with Mus musculus [3] worked out at 121; in the assay on Mus musculus [16], 109; in the assay on Mus musculus [17], 84; in the assay on Mus musculus [6], 119; in the assay with Mus musculus [18], 119; in the assay with Mus musculus [19], 1. Moreover, the Locomotor activity in the assay with Mus musculus [20] stood at 113; in the assay on Mus musculus [10], 45; with Mus musculus [21], 77; with Mus musculus [22] it was 103; in the assay on Mus musculus [13], 81; with Mus musculus [23], 86. In the assay on Rattus norvegicus, this compound registered an ED50 of 0.94 µmol/kg.
`COc1cccc2c1C[C@H]1CCN(Cc3ccccc3)[C@@H]1C2` (racemic) gave an inhibition constant Ki on D(2) dopamine receptor [1] of more than 10 µM.
As for `COc1cccc2c1C[C@H]1CCN[C@H]1C2` (racemic), at D(2) dopamine receptor [24], the 50% inhibitory concentration (IC50) is more than 1 µM.
Take `C=CCN1CC[C@@H]2Cc3c(cccc3OC)C[C@H]21` (racemic): the ED50 in assay [25] was > 10.7 µmol/kg and 6.8 µmol/kg. In addition, the ED50 entry in the assay on Felis catus is “inactive”.
Turning to `CCCN1CC[C@@H]2Cc3c(O)cccc3C[C@@H]21` (racemic), the Intrinsic activity on D(2) dopamine receptor [2] was determined as 61%.
The compound `CCCN1[C@H](C)C[C@@H]2Cc3cccc(OC)c3C[C@@H]21` (racemic) showed an IC50 against D(2) dopamine receptor [24] of more than 1 µM.
The compound `COc1cccc2c1C[C@H]1CCN(CC3CC3)[C@H]1C2` (racemic) yielded a Ki on D(2) dopamine receptor [1] of 0.748 µM.
`C=CCN1CC[C@@H]2Cc3cccc(OC)c3C[C@H]21` (racemic) registered an IC50 against D(2) dopamine receptor [24] of more than 1 µM.
Regarding `C=CCN1CC[C@@H]2Cc3c(cccc3OC)C[C@@H]21` (racemic), the affinity at D(2) dopamine receptor [1], expressed as Ki, was 0.429 µM. This lies in the sub-micromolar range.
